Common to all, as to assay type: cell-based
Assay [1] concerns T-47D cells. The assay can be described thus: Inhibition of cell proliferation in T-47D cells (CCK-8, 6 days). To be noted: 6 days of treatment. In outline:
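T-47D cells at 3,000 cells/well in RPMI 1640 with 10% FBS were exposed to a concentration series of PROTAC compounds for 6 days at 37 °C, 5% CO2. Viability was read by CCK-8, and IC50 values were derived for proliferation inhibition.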

Assay [2] has as its system MCF-7 cells. Briefly: Inhibition of cell proliferation of MCF-7 cells (CCK-8, 6 days). To be noted: 6 days of treatment, Table 4. From the text:
Test Example 3 Inhibitory effect of the PROTAC compounds provided in the present disclosure on cell proliferation of MCF-7 cells
The complete medium required for MCF-7 cells (source ATCC) was DMEM (gibco, Product number :11995-065) basal medium containing 10% fetal bovine serum. MCF-7 cells were inoculated in 96-well plates at a density of 800 cells/well, and different concentrations of the PROTAC compounds 1-55 provided in the examples of the present disclosure and a positive control sample ARV-471 (source: Innochem) were prepared to treat the cells, and the cells were treated at 37°C in a cell culture incubator with 5% CO2 for 6 days. Cell viability was detected using a CCK-8 kit (Beyotime, Product number: C0040) according to the manufacturer's instructions. The IC50 values of each PROTAC compound after 6 days of treatment were calculated using GraphPadPrism software based on the inhibition rate, and the results are shown in Table 4. Table 4 IC50 values for inhibition of the proliferation of MCF-7 cells by the PROTAC compounds of the present disclosure and positive control sample

Assay [3] deals with MCF-7 cells. Briefly: Inhibition of cell proliferation of MCF-7 cells (CCK-8, 9 days). In outline:
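MCF-7 cells seeded at 800 cells/well in DMEM with 10% FBS, exposed to a range of compound concentrations for 9 days at 37°C, 5% CO2. Viability read by CCK-8; IC50 derived for proliferation inhibition.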

The target of assay [4] is T1, ERα (Homo sapiens, UniProt P03372).
T1 sequence (P03372 1-595): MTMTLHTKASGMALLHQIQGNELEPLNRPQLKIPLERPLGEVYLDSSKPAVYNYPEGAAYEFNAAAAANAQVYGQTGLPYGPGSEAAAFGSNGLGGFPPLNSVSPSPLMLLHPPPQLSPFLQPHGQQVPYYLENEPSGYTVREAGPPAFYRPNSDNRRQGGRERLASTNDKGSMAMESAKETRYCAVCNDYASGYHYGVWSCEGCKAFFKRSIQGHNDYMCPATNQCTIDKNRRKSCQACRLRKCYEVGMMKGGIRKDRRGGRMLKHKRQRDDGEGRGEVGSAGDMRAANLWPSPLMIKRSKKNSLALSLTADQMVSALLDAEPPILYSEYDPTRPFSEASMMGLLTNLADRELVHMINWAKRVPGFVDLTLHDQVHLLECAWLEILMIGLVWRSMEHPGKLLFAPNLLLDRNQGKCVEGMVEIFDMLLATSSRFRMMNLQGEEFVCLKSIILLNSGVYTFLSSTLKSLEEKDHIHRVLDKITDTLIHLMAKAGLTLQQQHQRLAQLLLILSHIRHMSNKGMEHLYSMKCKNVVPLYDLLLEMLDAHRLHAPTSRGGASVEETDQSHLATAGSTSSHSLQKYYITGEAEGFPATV
Briefly: Degradation of ERα in MCF-7 cells (immunoblotting, 4 h). In outline:
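MCF-7 cells treated 4 h at 37°C with compounds at 0.15-1000nM final. ERα in lysates measured by immunoblot, with band grayscale normalized to an internal reference protein. Degradation rate calculated against DMSO-treated control.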

For assay [5], the target named is T1, ERα. The assay can be described thus: Degradation of ERα in T-47D cells (immunoblotting, 4 h). The arrangement: host or cells: T-47D. In outline:
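T-47D cells were treated with compound (final 0.15-1000 nM, DMSO) for 4 h at 37°C, 5% CO2. Cells were lysed in RIPA buffer with protease inhibitor, and ERα protein in the cleared lysate was measured by immunoblotting.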
Background: A western blot detects proteins with antibodies after separation by electrophoresis.

Where [6] appears, read: treated for 9 days, CCK-8 kit (Table 6).

In the case of `O=C1CC[C@H](N2Cc3cc(N4CCN(CC5CCN(c6ccc([C@@H]7c8ccc(O)cc8CC[C@@H]7c7ccccc7)cc6)CC5)CC4)ccc3C2=O)C(=O)N1` [ARV-471, reference compound], the 50% inhibitory concentration (IC50) – broadly, the concentration that inhibits the measured activity by half – in assay [1] (Homo sapiens, T47D, 144 h, Table 2) turned out to be 0.0017 µM; in assay [2] (Homo sapiens, MCF7, 144 h), 17.9 µM; in assay [3] (Homo sapiens, MCF7, 216 h, 9 days of treatment, CCK-8, Table 5) it was 0.07 µM. Besides, the “Degradation rate (%) of ERα in MCF-7 cells” value was 38% in assay [4] (1nM compound) and 76% in assay [4] (10nM compound). Moreover, the “Degradation rate (%) of ERα in T-47D cells” value is on record as 61% in assay [5] (1nM compound) and 85% in assay [5] (10nM compound).

As for `O=C1CCC(N2C(=O)c3cc4c(cc3C2=O)C2(CCN(CC3CCN(c5ccc(C6c7ccc(O)cc7CCC6c6ccccc6)cc5)CC3)CC2)CO4)C(=O)N1` (stereo not shown) [A8], the 50% inhibitory concentration (IC50) worked out at 0.104 µM in assay [1] (Table 2), 0.104 µM in assay [1] (Table 3), 19 µM in assay [2] and 0.019 µM in assay [3] (setting [6]). Also, the “Degradation rate (%) of ERα in MCF-7 cells” value in assay [4] (10nM compound) is -42%. The “Degradation rate (%) of ERα in T-47D cells” value in assay [5] (10nM compound) is -22%.

For the compound `O=C1CCC(N2C(=O)c3cc4c(cc3C2=O)OC2(CC4)CCN(CC3CN(c4ccc(C5c6ccc(O)cc6CCC5c5ccccc5)cc4)C3)CC2)C(=O)N1` (stereo not shown) [A6], the results for the IC50 in assay [1] (Table 2) and in assay [2] were 0.177 µM and 48.2 µM, respectively. Besides, the “Degradation rate (%) of ERα in MCF-7 cells” value in assay [4] (10nM compound) is -17%. For the same compound, the “Degradation rate (%) of ERα in T-47D cells” value in assay [5] (10nM compound) is listed as -23%.

Take `O=C1CCC(N2C(=O)c3cc4c(cc3C2=O)OC2(CCN(C3CCC5(CC3)CCN(c3ccc(C6c7ccc(O)cc7CCC6c6ccccc6)cc3)CC5)CC2)C4)C(=O)N1` (stereo not shown) [A25]: the half-maximal inhibitory concentration (IC50) was 0.02 µM in assay [1] (Table 2) and 23.4 µM in assay [2]. In addition, the “Degradation rate (%) of ERα in MCF-7 cells” value in assay [4] (10nM compound) was 8%. Further, the “Degradation rate (%) of ERα in T-47D cells” value in assay [5] (10nM compound) was -1%.

For the compound `O=C1CCC(N2C(=O)c3cc4c(cc3C2=O)OC2(CC4)CCN(C3CCC4(CC3)CCN(c3ccc(C5c6ccc(O)cc6CCC5c5ccccc5)cc3)CC4)CC2)C(=O)N1` (stereo not shown) [A12], the IC50 in assay [1] (Table 2) came to 0.127 µM; in assay [1] (Table 3), 0.127 µM; in assay [2] it was 4.6 µM; in assay [3] (setting [6]) it was 0.0046 µM. Also, the “Degradation rate (%) of ERα in MCF-7 cells” value in assay [4] (10nM compound) was 4%. Also, the “Degradation rate (%) of ERα in T-47D cells” value in assay [5] (10nM compound) is recorded as -1%.

`O=C1CCC(N2Cc3cc4c(cc3C2=O)OC2(CC4)CN(C3CCC4(CC3)CCN(c3ccc(C5c6ccc(O)cc6CCC5c5ccccc5)cc3)CC4)C2)C(=O)N1` (stereo not shown) [A30]: the IC50 turned out to be 0.0118 µM in assay [1] (Table 2) and 30.2 µM in assay [2]. Besides, the “Degradation rate (%) of ERα in MCF-7 cells” value in assay [4] (10nM compound) is on record as 23%. In addition, in assay [5] (10nM compound), the “Degradation rate (%) of ERα in T-47D cells” value came out at 46%.

As to `O=C1CCC(N2Cc3cc4c(cc3C2=O)CCC2(CCN(C3CCC5(CC3)CCN(c3ccc(C6c7ccc(O)cc7CCC6c6ccccc6)cc3)CC5)CC2)O4)C(=O)N1` (stereo not shown) [A21], the 50% inhibitory concentration (IC50) in assay [1] (Table 2) is 0.019 µM; in assay [2] it was 2.52 µM. For the same compound, the “Degradation rate (%) of ERα in MCF-7 cells” value in assay [4] (10nM compound) was 4%. In addition, the “Degradation rate (%) of ERα in T-47D cells” value in assay [5] (10nM compound) was -15%.

Consider `O=C1CCC(N2Cc3cc4c(cc3C2=O)CCC2(CCN(CC3CCN(c5ccc(C6c7ccc(O)cc7CCC6c6ccccc6)cc5)C3)CC2)O4)C(=O)N1` (stereo not shown) [B4], for which the half-inhibitory concentration (IC50) in assay [1] (Table 2) was found to be 0.0569 µM; in assay [2], 10 µM. Further, in assay [4] (10nM compound), the “Degradation rate (%) of ERα in MCF-7 cells” value was -34%. Further, in assay [5] (10nM compound), the “Degradation rate (%) of ERα in T-47D cells” value was -9%.

As for `O=C1CCC(N2C(=O)c3cc4c(cc3C2=O)OCC2(CCN(C3CCC5(CC3)CN(c3ccc(C6c7ccc(O)cc7CCC6c6ccccc6)cc3)C5)CC2)C4)C(=O)N1` (stereo not shown) [A14], the results for the concentration for half-maximal inhibition (IC50) in assay [1] (Table 2) and in assay [2] were 0.044 µM and 4.82 µM, respectively. In assay [4] (10nM compound), the “Degradation rate (%) of ERα in MCF-7 cells” value is on record as 5%. Further, the “Degradation rate (%) of ERα in T-47D cells” value in assay [5] (10nM compound) is 4%.

In the case of `O=C1CCC(N2C(=O)c3cc4c(cc3C2=O)OC2(CC4)CCN(c3ccc(C4c5ccc(O)cc5CCC4c4ccccc4)cc3)CC2)C(=O)N1` (stereo not shown) [A7], the results for the half-inhibitory concentration (IC50) in assay [1] (Table 2) and in assay [2] were 0.167 µM and 99.9 µM, respectively. The “Degradation rate (%) of ERα in MCF-7 cells” value in assay [4] (10nM compound) is -29%. Moreover, the “Degradation rate (%) of ERα in T-47D cells” value in assay [5] (10nM compound) is given as -14%.

On to `O=C1CCC(N2C(=O)c3cc4c(cc3C2=O)OC2(CC4)CCN(CC3CCN(c4ccc(C5c6ccc(O)cc6CCC5c5ccccc5)cc4)CC3)CC2)C(=O)N1` (stereo not shown) [A1], for which the values for the IC50 in assay [1] (Table 2) and in assay [2] were 0.008 µM and 49.5 µM, respectively. The “Degradation rate (%) of ERα in MCF-7 cells” value in assay [4] (10nM compound) is -17%. In addition, the “Degradation rate (%) of ERα in T-47D cells” value in assay [5] (10nM compound) is -11%.

As for `O=C1CCC(N2Cc3cc4c(cc3C2=O)OCC2(CCN(C3CCC5(CC3)CN(c3ccc(C6c7ccc(O)cc7CCC6c6ccccc6)cc3)C5)CC2)O4)C(=O)N1` (stereo not shown) [A27], the IC50 in assay [1] (Table 2) is 0.015 µM; in assay [2] it was 4.36 µM. Further, the “Degradation rate (%) of ERα in MCF-7 cells” value in assay [4] (10nM compound) is 4%. The “Degradation rate (%) of ERα in T-47D cells” value in assay [5] (10nM compound) is recorded as -15%.

Values taken from patent EP4656642A1, “ESTROGEN RECEPTOR PROTEOLYSIS TARGETING CHIMERA COMPOUND AND USE THEREOF” (GAN & LEE PHARM CO., LTD, priority 2023, dated 2024).
